{"source": "patent US9433607B2", "about": "“Composition for prevention or treatment of cancer comprising N-methylenenaphtho[2,1-b]furan-2-carbohydrazide derivatives as an active ingredient” (KOREA RESEARCH INSTITUTE OF BIOSCIENCE AND BIOTECHNOLOGY, priority 2012, dated 2016)", "key": {"MCF7": {"test_system": "MCF7", "experiment": "Cytotoxicity MTT assay, MCF7", "format": "cell-based", "conditions": "Homo sapiens, 96 h, 4 days", "description": "(§1) Particularly, K562, MCF7 (Bio-Evaluation Center, Korea Research Institute of Bioscience and Biotechnology, Korea), and the multi-drug resistant cell lines thereof, K562/ADR and MCF7/ADR (Bio-Evaluation Center, Korea Research Institute of Bioscience and Biotechnology, Korea) were cultured in microtiter plate (1-3×10^3 cells/well). Then, the cells were treated with ethyl(2-methyl-3{(E)-[(naphtho[2,1-b]furan-2-ylcarbonyl)hydrazono]methyl}-1H-indole-1-yl)acetate, doxorubicin, or taxol, followed by culture for 4 days. Cytotoxicity was investigated by MTT assay by the same manner as described in Example <1-2>. IC50 was calculated by long-dose response curve. The data presents the mean value obtained from the assay performed in triplicate (Table 3)."}, "[1]": {"test_system": "FVB/N mouse induced with skin tumor", "experiment": "DMBA/TPA induced skin tumor model", "format": "in vivo", "description": "In this invention, the male FVB/N mice (6-7 weeks, Jackson Laboratory, USA) were raised under the condition of 12 hr bright lighting/12 hr dim lighting at the temperature of 24±2° C. with the humidity of 50±10% with water and feed provided freely. The care and process of the test animal was reviewed and approved by Institutional Animal Care and Use Committee (IACUC), Korea Research Institute of Bioscience and Biotechnology (KRIBB). DMBA (7,12-dimethylbenz[α]anthracene), TPA (12-O-tetradecanoylphorbol-13-acetate) and cholchicine were purchased from Sigma-Aldrich, and the synthesized ethyl(2-methyl-3{(E)-[(naphtho[2,1-b]furan-2-ylcarbonyl)hydrazono]methyl}-1H-indole-1-yl)acetate was provided from Dr. Thimmegowda.\nParticularly, the dorsal skin of the said FVB/N mouse was shaved two days before the experiment. 100 μg of DMBA was added to 0.2 ml of acetone, which was treated to the mouse by single-local administration for 1 week to induce tumor. 5 fig of TPA was added to 0.2 ml of acetone, which was treated to the above mouse induced with tumor […] for 15 weeks to grow the tumor. 500 nM of ethyl(2-methyl-3{(E)-[(naphtho[2,1-b]furan-2-ylcarbonyl)hydrazono]methyl}-1H-indole-1-yl)acetate or cholchicine was dissolved in 0.2 ml of acetone, which was treated to the above mouse locally for 30 minutes each time for 15 weeks. Each group was composed of at least 10 mice and total 4 groups were prepared:\nGroup 1: DMBA and acetone treated group (negative control)\nGroup 2: DMBA and TPA treated group (positive control)\nGroup 3: DMBA/TPA and cholchicine treated group (experimental group 1)\nGroup 4: DMBA/TPA and ethyl(2-methyl-3{(E)-[(naphtho[2,1-b]furan-2-ylcarbonyl)hydrazono]methyl}-1H-indole-1-yl)acetate treated group (experimental group 2).\nIn addition, skin tumor such as papilloma was checked every week during the whole period of experiment. The tumor in the size of at least 2 mm was judged as positive. 15 weeks later, the mice were sacrificed with CO2. The skin tumor was extracted for histopathological/biochemical analysis.\nThe average number and the volume of tumor in each group were calculated.\nEach mouse group was treated with different materials by the same manner as described in Example <8-2>, followed by observation for 15 weeks, and then the number of mice having skin tumor was counted. Tumor development rate was presented as %.\nThe mouse induced with skin tumor by the same manner as described in Example <8-2> was treated with DMBA, and then the induced tumors were observed and weighed for 15 weeks to produce the average weight of tumor."}, "HL60": {"test_system": "HL60", "experiment": "Anti-proliferative MTT assay, HL60", "format": "cell-based", "conditions": "Homo sapiens, HL-60, 96 h, HL60, Blood, 4 days", "description": "Various cancer cell lines (rectal cancer, prostate cancer, breast cancer, lung cancer, stomach cancer, liver cancer, leukemia, brain cancer, and glioma cell lines) were cultured in microtiter plate (1-3×10^3 cells/well), to which ethyl(2-methyl-3{(E)-[(naphtho[2,1-b]furan-2-ylcarbonyl)hydrazono]methyl}-1H-indole-1-yl)acetate was treated. The culture continued for 4 days. Cytotoxicity was investigated by MTT assay by the same manner as described in Example <1-2>. IC50 was calculated by long-dose response curve. The data presents the mean value obtained from the assay performed in triplicate."}, "purified tubulin": {"test_system": "purified tubulin", "experiment": "In vitro tubulin polymerization, degree of turbidity", "format": "biochemical", "conditions": "5 μM, purified tubulin and GTP, 340 nm", "description": "To measure the polymerization of tubulin in vitro, the buffer containing the purified tubulin and GTP was treated with ethyl(2-methyl-3{(E)-[(naphtho[2,1-b]furan-2-ylcarbonyl)hydrazono]methyl}-1H-indole-1-yl)acetate at the concentration of 5 μM. DMSO, and the equivalent Taxol and vinblastine were used as the controls. The polymerization of tubulin into microtubules was determined if the degree of turbidity was 340 nm."}, "MCF7/ADR": {"test_system": "MCF7/ADR", "experiment": "Cytotoxicity MTT assay, multi-drug resistant MCF7/ADR", "format": "cell-based", "description": "as §1\n(§2) The resistance factor of the multi-drug resistant cell line indicates the ratio of IC50 of the multi-drug resistant cell line to IC50 of the parent cell line showing no resistance, which was presented as a number in the bracket."}, "K562/ADR": {"test_system": "K562/ADR", "experiment": "Cytotoxicity MTT assay, multi-drug resistant K562/ADR", "format": "cell-based", "description": "as §1, §2"}, "[2]": {"test_system": "Cdc25C, Cyclin B1, and Plk1 (Polo-like kinase 1)", "experiment": "Immunoblotting of proteins regulating cell division", "format": "cell-based", "conditions": "HeLa cells, 17 hours", "excerpt": "The effect of ethyl(2-methyl-3{(E)-[(naphtho[2,1-b]furan-2-ylcarbonyl)hydrazono]methyl}-1H-indole-1-yl)acetate on Cdc25C, Cyclin B1, and Plk1 (Polo-like kinase 1), the proteins regulating cell division, was investigated. When Cdc25C is activated in the course of cell division, Cdc25C is hyperphosphorylated so that its movement on SDS-PAGE is slowed down. Based on that principal, Cdc25C activation was investigated. Referring that the expressions of Cyclin B1 and Plk1 are differently regulated in each stage of cell cycle, the expression of each protein was measured. The levels of Cyclin B1 and Plk1 were the lowest in G1 phase.\nHeLa cells were treated with DMSO, nocodazole (NOC), or ethyl(2-methyl-3{(E)-[(naphtho[2,1-b]furan-2-ylcarbonyl)hydrazono]methyl}-1H-indole-1-yl)acetate for 17 hours. The cells were harvested, followed by immunoblotting using cyclin B1, Cdc25C, Plk1, and GAPDH specific antibodies. GAPDH was used as a loading control."}}}
{"compound": "CCOC(=O)Cn1c(C)c(/C=N/NC(=O)c2cc3c(ccc4ccccc43)o2)c2ccccc21", "note": "[STK899704]", "values": [{"measurement": "IC50", "setting": "MCF7", "value": 1060, "unit": "µM"}, {"measurement": "number of skin tumor", "setting": "[1]; 500 nM in 0.2 ml acetone, local, 15 weeks", "value": "significantly reduced"}, {"measurement": "weight of tumor compared with positive control", "setting": "[1]; 15 weeks", "value": "significantly lighter"}, {"measurement": "average volume of skin tumor reduced compared with positive control", "setting": "[1]; 15 weeks, 500 nM local", "value": 20.3, "unit": "%"}, {"measurement": "decrease of average number of skin tumor compared with positive control", "setting": "[1]; 15 weeks, 500 nM local", "value": 4.75, "unit": "times"}, {"measurement": "average weight of tumor as fraction of positive control", "setting": "[1]; 15 weeks, experimental group 2", "value": "1/10"}, {"measurement": "week to which tumor formation was postponed", "setting": "[1]; tumor of at least 2 mm, positive control from 8th week", "value": 10, "unit": "week"}, {"measurement": "IC50", "setting": "HL60", "value": 0.563, "unit": "µM"}, {"measurement": "degree of turbidity (tubulin polymerization) compared with Taxol", "setting": "purified tubulin", "value": "the degree of turbidity was lower"}, {"measurement": "IC50", "setting": "MCF7/ADR; Homo sapiens, NCI/ADR-RES, 96 h, MCF7/ADR, MTT, 4 days", "value": 225, "unit": "µM"}, {"measurement": "resistance factor (number in the bracket)", "setting": "MCF7/ADR; ratio of IC50 of MCF7/ADR to IC50 of parent MCF7", "value": 0.2}, {"measurement": "IC50", "setting": "K562/ADR; Homo sapiens, 96 h, K562/ADR, MTT, 4 days", "value": 285, "unit": "µM"}, {"measurement": "resistance factor (number in the bracket)", "setting": "K562/ADR; ratio of IC50 of K562/ADR to IC50 of parent K562", "value": 0.6}, {"measurement": "effect on Cdc25C, cyclin B1 and Plk1 (immunoblotting)", "setting": "[2]", "value": "Cdc25C was phosphorylated and cyclin B1 and Plk1 were accumulated"}]}
